Laboratory results as given in patent US20210212321A1, “STABILIZED FUNGICIDAL COMPOSITION COMPRISING CYCLODEXTRIN” (Bayer CropScience LP, priority 2018, published 2021).

What was measured:
Format in all cases: physicochemical
[1] = Storage stability of prothioconazole/penflufen mixture with 25 wt % MeCD at various temperatures (HPLC); conditions: for % Degradation (PTZ) / % PTZ / % PFL: with 25 wt % MeCD
Protocol: Aqueous solutions of a mixture of prothioconazole (PTZ) at a concentration of about 1.5% (w/w), and penflufen at a concentration of about 1.65% (w/w), were prepared and physically mixed with MeCD at 25 wt %. These samples were stored for two weeks at 54° C., for eight weeks at 40° C., or for 6 months at 30° C. The initial amount of PTZ or PFL in each sample was measured together with the final amount of PTZ or PLF after storage using HPLC.

[2] = Storage of Prothioconazole SC for two months with or without nitrogen purging; prothioconazole desthio quantified by LC-MS; conditions: sample D compared to samples A and B
Protocol: All samples were stored in glass containers with exposure to ambient light at room temperature for two months. Certain samples were also wrapped with foil to limit exposure to ambient oxygen. At the conclusion of the storage period, prothioconazole desthio was quantified in each sample using LC-MS.
This study was conducted with the same group of samples stored for two months in containers made of plastic instead of glass, and similar results were observed.

[3] = Storage stability of RAXIL PRO MD + penflufen with increasing methyl cyclodextrin (HPLC); conditions: RAXIL PRO MD+PFL (1.38% w/w), highest concentration of cyclodextrin (MeCD); two weeks at 54° C.
Description: A sample containing PTZ without any PFL or cyclodextrin was included as the “Control” in FIGS. 3 and 4.

[4] = Storage of RAXIL PRO MD for two weeks with or without nitrogen purging; prothioconazole desthio quantified by LC-MS; conditions: sample D compared to samples A, B and C
Protocol: RAXIL® PRO MD is a commercial product containing 1.47% prothioconazole, 0.29% tebuconazole, and 0.59% metalaxyl in an aqueous formulation. Samples of RAXIL® PRO MD were subjected to nitrogen purging by bubbling nitrogen gas through the samples for about 5 minutes. Control samples were not purged with nitrogen. The samples were then divided into the groups outlined in Table 1. Samples were either maintained in the dark or exposed to ambient light. In addition, certain samples were wrapped in foil to minimize contact with ambient oxygen while others were not. All samples were stored at room temperature.
After two weeks of storage under these conditions, prothioconazole desthio was quantified in each sample using liquid chromatography mass spectrometry (LC-MS) using a SCIEX TRIPLE QUAD™6500 and a standard curve generated with a prothioconazole desthio chemical standard.

[5] = Storage stability of aqueous prothioconazole solutions with or without cyclodextrins (LC-MS); conditions: two weeks at 54° C.
Protocol: Aqueous solutions of prothioconazole (PTZ) at a concentration of about 1% to about 1.5% (w/w) were prepared. These samples were stored for two weeks at 54° C., for eight weeks at 40° C., or for 52 weeks at 20° C. The initial amount of PTZ in each sample was measured together with the final amount of PTZ after storage using LC-MS as outlined in Example 1. From these measurements the percentage of PTZ remaining after storage was calculated and ranged from about 94% to about 97% (see FIG. 1A).
In a separate experiment, the ability of two different cyclodextrins, 2-hydroxypropyl-β cyclodextrin (HPCD) and methyl-β cyclodextrin (MeCD), to stabilize PTZ was evaluated. Aqueous solutions of PTZ at a concentration of about 1% to about 1.5% (w/w) were mixed with 15% (w/w) HPCD or 15% (w/w) MeCD. A control sample contained no cyclodextrins. The samples were stored for two weeks at 54° C., and the percentage of PTZ remaining after storage was calculated as before using LC-MS.

OC(Cc1ccccc1Cl)(Cn1nc[nH]c1=S)C1(Cl)CC1 (racemic) [Prothioconazole, 2-[2-(1-chlorocyclopropyl)-3-(2-chloro-phenyl)-2-hydroxy-propyl]-2,4-dihydro-3H-1,2,4-triazole-3-thione]
% Degradation (PTZ) ([1]; Table 3, 30° C. for 6 months): 2.01% | % PTZ ([1]; Table 3, 30° C. for 6 months): 1.46% | % Degradation (PTZ) ([1]; Table 3, 40° C. for 8 weeks): 4.03% | % PTZ ([1]; Table 3, 40° C. for 8 weeks): 1.43% | % Degradation (PTZ) ([1]; Table 3, 54° C. for 2 weeks): 2.68% | % PTZ ([1]; Table 3, 54° C. for 2 weeks): 1.45% | % Degradation (PTZ) ([1]; Table 3, T0): 0% | % PTZ ([1]; Table 3, T0): 1.49% | % Degradation (PTZ) ([1]; Table 4, 30° C. for 6 months): 2.01% | % PTZ ([1]; Table 4, 30° C. for 6 months): 1.46% | % Degradation (PTZ) ([1]; Table 4, 40° C. for 8 weeks): 4.70% | % PTZ ([1]; Table 4, 40° C. for 8 weeks): 1.42% | % Degradation (PTZ) ([1]; Table 4, 54° C. for 2 weeks): 2.01% | % PTZ ([1]; Table 4, 54° C. for 2 weeks): 1.46% | % Degradation (PTZ) ([1]; Table 4, T0): 0% | % PTZ ([1]; Table 4, T0): 1.49% | Level of degradation to prothioconazole desthio, sample exposed to light and ambient oxygen versus nitrogen-stabilized samples [2]: about ten times higher | reduction in degradation of PTZ [3]: 86% | Level of degradation to prothioconazole desthio, samples not purged with nitrogen versus nitrogen-stabilized samples and samples stored in the dark [4]: over ten times higher | degradation of PTZ ([5]; mixed with 15% (w/w) HPCD): no observable degradation | degradation of PTZ ([5]; mixed with 15% (w/w) MeCD): no observable degradation

Cc1nn(C)c(F)c1C(=O)Nc1ccccc1C(C)CC(C)C (stereo not shown) [Penflufen, N[2-(1,3-dimethylbutyl)phenyl]-5-fluoro-1,3-dimethyl pyrazole-4-carboxamide]
% Degradation (PFL) ([1]; 0 weeks, 1.65 % (w/w)): 0% | % PFL ([1]; Table 3, 30° C. for 6 months): 1.62% | % PFL ([1]; Table 3, 40° C. for 8 weeks): 1.54% | % PFL ([1]; Table 3, 54° C. for 2 weeks): 1.6% | % PFL ([1]; Table 3, T0): 1.68% | % PFL ([1]; Table 4, 30° C. for 6 months): 1.58% | % PFL ([1]; Table 4, 40° C. for 8 weeks): 1.60% | % PFL ([1]; Table 4, 54° C. for 2 weeks): 1.58% | % PFL ([1]; Table 4, T0): 1.64% | reduction in degradation of PFL [3]: 65%
